Assay [1] deals with Neprilysin (Rattus norvegicus) (UniProt P07861). Put plainly: Compound was tested for inhibitory activity against neutral endopeptidase (NEP) at concentration 10 nM.
Assay [2] addresses T1, Neprilysin (Rattus norvegicus) (UniProt P07861).
T1 sequence (whole entry): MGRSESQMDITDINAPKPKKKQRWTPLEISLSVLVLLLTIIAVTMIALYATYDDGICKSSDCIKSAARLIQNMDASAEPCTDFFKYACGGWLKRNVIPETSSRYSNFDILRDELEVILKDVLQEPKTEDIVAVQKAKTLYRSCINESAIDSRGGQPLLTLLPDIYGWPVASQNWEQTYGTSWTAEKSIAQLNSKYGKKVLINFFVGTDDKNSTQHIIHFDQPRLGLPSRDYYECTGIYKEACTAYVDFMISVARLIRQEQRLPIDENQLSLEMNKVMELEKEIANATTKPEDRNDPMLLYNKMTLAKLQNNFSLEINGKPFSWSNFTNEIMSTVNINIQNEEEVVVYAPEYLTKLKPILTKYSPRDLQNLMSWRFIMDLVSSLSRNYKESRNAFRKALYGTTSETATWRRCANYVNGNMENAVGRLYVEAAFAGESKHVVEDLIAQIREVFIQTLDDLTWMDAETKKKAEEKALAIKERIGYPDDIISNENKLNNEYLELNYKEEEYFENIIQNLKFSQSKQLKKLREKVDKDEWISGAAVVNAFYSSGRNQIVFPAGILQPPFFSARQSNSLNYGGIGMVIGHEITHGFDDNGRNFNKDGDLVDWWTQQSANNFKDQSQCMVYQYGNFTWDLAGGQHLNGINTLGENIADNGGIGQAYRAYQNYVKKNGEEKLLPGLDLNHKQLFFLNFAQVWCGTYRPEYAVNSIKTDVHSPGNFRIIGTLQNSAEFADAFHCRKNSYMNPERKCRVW
Put plainly: Compound was tested for inhibitory activity against neutral endopeptidase (NEP) at concentration 300 nM.

In assay [3] the target is T2, Neprilysin (Rattus norvegicus, UniProt P07861).
T2 sequence (P07861 whole entry): T1 sequence (whole entry)
Put plainly: compound was tested for inhibitory activity against neutral endopeptidase (NEP).

The target in assay [4] is T1, Neprilysin (Rattus norvegicus). Put plainly: Compound was tested for inhibitory activity against neutral endopeptidase (NEP) at concentration 1000 nM.
For assay [5], the target named is T2, Neprilysin. Nature of the assay: Compound was tested for inhibitory activity against neutral endopeptidase (NEP).
In assay [6] the target is T3, Endothelin-converting enzyme 1 (Homo sapiens) (UniProt P42892).
T3 sequence (whole entry): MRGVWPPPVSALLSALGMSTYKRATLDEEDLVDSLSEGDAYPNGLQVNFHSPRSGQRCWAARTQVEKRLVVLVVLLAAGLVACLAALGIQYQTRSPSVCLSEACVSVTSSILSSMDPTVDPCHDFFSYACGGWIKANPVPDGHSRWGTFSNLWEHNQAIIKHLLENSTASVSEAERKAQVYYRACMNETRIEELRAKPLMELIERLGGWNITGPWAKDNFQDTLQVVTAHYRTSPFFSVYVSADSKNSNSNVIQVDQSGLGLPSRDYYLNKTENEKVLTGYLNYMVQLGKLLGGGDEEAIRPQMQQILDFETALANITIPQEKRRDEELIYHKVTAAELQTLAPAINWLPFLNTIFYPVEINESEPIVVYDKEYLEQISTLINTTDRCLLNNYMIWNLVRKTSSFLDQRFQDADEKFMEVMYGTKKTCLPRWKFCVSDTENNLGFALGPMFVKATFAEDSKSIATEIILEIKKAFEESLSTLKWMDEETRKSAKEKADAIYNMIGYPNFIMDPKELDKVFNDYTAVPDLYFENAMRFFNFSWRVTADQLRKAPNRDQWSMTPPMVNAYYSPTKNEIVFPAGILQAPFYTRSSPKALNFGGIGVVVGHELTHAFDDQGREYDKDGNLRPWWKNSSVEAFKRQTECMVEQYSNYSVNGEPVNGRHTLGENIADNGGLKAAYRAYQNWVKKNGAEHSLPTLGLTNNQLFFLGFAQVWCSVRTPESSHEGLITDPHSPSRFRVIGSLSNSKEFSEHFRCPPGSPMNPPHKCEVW
Nature of the assay: Compound was tested for inhibitory activity against Endothelin-converting enzyme isolated from guinea pig lung membrane at concentration 10 nM. The class given is tissue-based. To be noted: Cavia porcellus, target entry is the homologue from another species.

The inhibition is how much of the control response was suppressed. The low end stands for a weak effect, the high end for a strong effect. Consider `CC(C)CC(CP(=O)(O)C(N)Cc1ccccc1)C(=O)N[C@@H](Cc1c[nH]c2ccccc12)C(=O)O` (stereo not given in full), for which the inhibition in assay [1] was 31%.

With `CC(C)CC(CP(=O)(O)C(Cc1ccccc1)NC(=O)[C@H](CC(C)C)NC(=O)OCc1ccccc1)C(=O)N[C@@H](Cc1c[nH]c2ccccc12)C(=O)O` (stereo not given in full), the inhibition in assay [2] was 9%.

Usually IC50 stands for the concentration that gives 50% inhibition. Take `CC(C)C(CP(=O)(O)C(Cc1ccccc1)NC(=O)[C@H](CCCCN)NS(C)(=O)=O)C(=O)N[C@@H](Cc1c[nH]c2ccccc12)C(=O)O` (stereo not given in full): the concentration for half-maximal inhibition (IC50) on Neprilysin [3] was 800 nM.

In assay [2], `CC(C)C(CP(=O)(O)C(Cc1ccccc1)NC(=O)[C@H](CCCCNC(=O)OCc1ccccc1)NS(C)(=O)=O)C(=O)N[C@@H](Cc1c[nH]c2ccccc12)C(=O)O` (stereo not given in full) displayed an inhibition of 19%.

On to `CC(C)C(CP(=O)(O)C(Cc1ccccc1)NC(=O)[C@H](CCCCN)NC(=O)OCc1ccccc1)C(=O)N[C@@H](Cc1c[nH]c2ccccc12)C(=O)O` (stereo not given in full), for which the inhibition in assay [4] stood at 0%.

For `CC(C)CC(CP(=O)(O)C(CC(C)C)NC(=O)[C@H](CCCCNC(=O)OCc1ccccc1)NS(C)(=O)=O)C(=O)N[C@@H](Cc1c[nH]c2ccccc12)C(=O)O` (stereo not given in full), at Neprilysin [3], the concentration for half-maximal inhibition (IC50) was determined as 320 nM.

With `CC(C)CC(CP(=O)(O)C(Cc1ccc2ccccc2c1)NC(=O)[C@H](CCCCN)NS(C)(=O)=O)C(=O)N[C@@H](Cc1c[nH]c2ccccc12)C(=O)O` (stereo not given in full), the inhibition in assay [2] was 18%.

With `CC(C)CC(CP(=O)(O)C(Cc1ccc2ccccc2c1)NC(=O)[C@H](CCCCNC(=O)OCc1ccccc1)NS(C)(=O)=O)C(=O)N[C@@H](Cc1c[nH]c2ccccc12)C(=O)O` (stereo not given in full), the inhibition in assay [2] came out at 13%.

In the case of `CC(C)CC(NC(=O)[C@H](CCCCNC(=O)OCc1ccccc1)NS(C)(=O)=O)P(=O)(O)CC(C)C(=O)N[C@@H](Cc1c[nH]c2ccccc12)C(=O)O` (stereo not given in full), the 50% inhibitory concentration (IC50) at Neprilysin [5] is 370 nM. Further, the inhibition in assay [6] worked out at 57%.

The values above are taken from ChEMBL document CHEMBL1149921 (Bioorg Med Chem Lett, 1996).
